Experiments:
Assay type in all cases: in vivo
TNF-α = assay: Production quantity of TNF-α of adipose tissues from treated high-fat diet AKR mice (ELISA); conditions: 60th day, 25 μg/kg oral once a day; for inhibitory effect on the production of TNF-α compared with negative sample: adipose tissue, Tukey-Kramer's test; for TNF-α: culture supernatant of epididymal fat tissue after 1 hour culture
Method: (§1) This example was performed in order to evaluate an effect of the agent for improving insulin resistance of the present invention on production quantities of TNF-α and MCP-1 in each cell of adipose tissue by using AKR mice in which insulin resistance is induced by feeding with a high-fat diet.
(§2) In Example 2, the same Test Samples 1, 2 and the negative sample as those prepared in Example 1 were used.
(§3) These mice were divided into groups, each consisting of 8 mice. […] After 1 hour of the culture, culture supernatants were collected, and concentrations of TNF-α and MCP-1 in the culture supernatants were measured by ELISA method (Biosource).

[1] = test system: AKR mice in which insulin resistance is induced by feeding with a high-fat diet; assay: Level of free fatty acid in serum of high-fat diet AKR mice; conditions: for Test Sample/Negative sample (free fatty acid): serum free fatty acid relative to negative sample, 60th day, 25 μg/kg oral once a day; for Free fatty acid: serum, fasting, 60th day of oral administration 25 μg/kg of body weight once a day, AKR mice on high-fat diet
Method: Each of 9,19-cyclolanostan-3-ol and 24-methylene-9,19-cyclolanostan-3-ol produced in Preparation Example 3 was dissolved in DMSO, and each concentration was adjusted to 1 μg/ml with distilled water to thereby prepare Test Samples 1 and 2.
These mice were divided into groups, each consisting of 8 mice.

MCP-1 = assay: Production quantity of MCP-1 of adipose tissues from treated high-fat diet AKR mice (ELISA); conditions: 60th day, 25 μg/kg oral once a day; for inhibitory effect on the production of MCP-1 compared with negative sample: adipose tissue, Tukey-Kramer's test; for MCP-1: culture supernatant of epididymal fat tissue after 1 hour culture
Method: as §1, §2, §3

[2] = test system: AKR mice in which insulin resistance is induced by feeding with a high-fat diet; assay: Insulin tolerance test in high-fat diet AKR mice; conditions: 45th day, 25 μg/kg oral once a day, 4 h fast, human insulin 0.75 U/Kg i.p., up to 60 minutes (FIG. 1)
Method: This example was performed in order to evaluate an enhancing effect of the agent for improving insulin resistance of the present invention on insulin sensitivity by performing an insulin tolerance test using AKR mice in which insulin resistance is induced by feeding with a high-fat diet.
In Example 3, the same Test Samples 1, 2 and the negative sample as those prepared in Examples 1 and 2 were used.
These mice were divided into groups, each consisting of 8 mice. […] In the present example, the insulin tolerance test was performed in such a manner that: the mice were fasted for 4 hours, and were then intraperitoneally administered with 0.75 U/Kg of body weight of a human insulin (Eli Lily and Company); and changes with time in blood glucose level were measured from the initiation of the administration of the insulin to after 60 minutes later.

SMILES | inhibitory effect on the production of TNF-α compared with negative sample (TNF-α) | TNF-α (TNF-α) | Test Sample/Negative sample (free fatty acid) [1] | Free fatty acid [1] | inhibitory effect on the production of MCP-1 compared with negative sample (MCP-1) | MCP-1 (MCP-1) | change in blood glucose level after insulin administration [2]
CC(C)CCCC(C)C1CCC2(C)C3CCC4C(C)(C)C(O)CCC45CC35CCC12C (centres unmarked) [Test Sample 1, 9,19-cyclolanostan-3-ol] | significant inhibitory effects | 29.80 ± 2.58 pg/mL | 81.1% | 1.20 ± 0.38 mEq/l | significant inhibitory effects | 89.83 ± 6.16 pg/mL | rapid decrease in blood glucose levels
C=C(CCC(C)C1CCC2(C)C3CCC4C(C)(C)C(O)CCC45CC35CCC12C)C(C)C (centres unmarked) [Test Sample 2, 24-methylene-9,19-cyclolanostan-3-ol] | significant inhibitory effects | 33.59 ± 0.59 pg/mL | 81.1% | 1.20 ± 0.25 mEq/l | significant inhibitory effects | 99.32 ± 7.80 pg/mL | rapid decrease in blood glucose levels
